Assays:
[1] = test system: MGC-803 cells; assay: TUNEL assay; type: cell-based, human; details: 5 μM, 5f 6, 12, and 18 h, HCPT 18 h
Method: To further verify AO/EB and Hoechst 33,258 staining results, TUNEL assay was also carried out. TUNEL (Terminal deoxynucleotidyl Transferase Biotin-dUTP Nick End Labeling) is a very popular assay for identifying apoptotic cells. The assay identifies apoptotic cells in situ by using terminal deoxynucleotidyl transferase (TdT) to transfer biotin-dUTP to these strand breaks of cleaved DNA. The biotin-labeled cleavage sites are then detected by reaction with HRP conjugated streptavidin and visualized by DAB showing brown color [24]. MGC-803 cells treated with compound 5f at 5 μM for 6, 12, and 18 h were stained with TUNEL, with HCPT as positive control at 5 μM for 18 h. […] We further concluded that compound 5f induced apoptosis against MGC-803.

[2] = test system: MGC-803 cells; assay: AO/EB staining for apoptosis; type: cell-based, human; details: 12 h, 5f at 1, 5, 10 μM, HCPT at 10 μM
Method: It is well known that AO can pass through cell membranes, but EB cannot. Under the fluorescence microscope, living cells appear green. Necrotic cells stain red but have a nuclear morphology resembling that of viable cells. Apoptotic cells appear green, and morphological changes such as cell blebbing and formation of apoptotic bodies will be observed.
Representative images of the cells treated with 10 μM of HCPT (used as positive control) and 1, 5, 10 μM of compound 5f for 12 h are shown in Fig. 2a.
(§1) Cells were seeded in 6-well culture plates at a density of 5 × 10^4 cells/mL in 0.6 mL of medium and allowed to adhere to the plates overnight. The cells were incubated with different concentrations of compounds or vehicle solution (0.1% DMSO) in a medium containing 10% FBS for 12 h. After the treatment, the cover slip with monolayer cells was inverted on the glass slide with 20 μL of AO/EB stain (100 μg/mL), and finally analyzed for morphological characteristics of cell apoptosis under a fluorescence microscope (Olympus Co., Japan).

[3] = test system: MGC-803 cells; assay: Flow cytometry, Annexin V/PI double staining; type: cell-based, human; details: for apoptosis ratio: MGC-803 cells, 10 μM, 24 h
Method: In addition, the apoptosis ratios induced by compound 5f in MGC-803 cells were determined by flow cytometry, using Annexin V/PI double staining. Flow cytometry was performed on the total cell population (including both adherent and detached cells) and apoptosis detection was carried out as mentioned above. This double staining procedure discriminated necrotic cells (Q1, Annexin^−/PI^+), late apoptotic cells (Q2, Annexin^+/PI^+), intact cells (Q3, Annexin^−/PI^−) and early apoptotic cells (Q4, Annexin^+/PI^−). […] For the positive control HCPT, the apoptosis ratio was only 22.3% after 24 h of treatment at a concentration of 10 μM.
To further quantitative analysis of apoptosis, the cells were washed with PBS, stained with annexinV-FITC and propidium iodide (PI) using the AnnexinV-FITC kit (KeyGEN BioTECH). The cells were then subjected to flow cytometry according to manufacturer’s instructions and the stained cells were analyzed by FACS can flow cytometer (Becton–Dickinson, CA, USA).

[4] = test system: human breast cancer cell line Bcap-37; assay: MTT assay, Bcap-37 cells; type: cell-based; details: for inhibition at 10 µM: Bcap37, 10 μM, 72 h, read-out: Inhibition rates against different cells (%) Bcap-37; for IC50: Bcap37, 72 h after treatment
Method: (§2) The in vitro antitumor activity of the newly synthesized compounds 5a–5n were evaluated against a panel of three human cancer cell lines, including human gastric cancer cell line MGC-803, human prostate cancer cell line PC3, and human breast cancer cell line Bcap-37, and one normal cell line NIH3T3 (mouse embryo fibroblast cell line) by MTT method. Adriamycin (ADM) was chosen as a reference drug due to its availability and widespread use. Each experiment was repeated at least three times.
(§3) Human gastric cancer cell line MGC-803, human prostate cancer cell line PC3, and human breast cancer cell line Bcap-37 and one normal cell line NIH3T3 were obtained from Cell Bank of Type Culture Collection of Chinese Academy of Sciences (Shanghai, China). NIH3T3 was routinely maintained in a DMEM medium, while all the other cell lines were cultured in a 1640 medium. All the cells were grown in the medium supplemented with 10% FBS at 37 °C with 5% CO2.
(§4) The growth-inhibitory effects of the test compounds were determined on MGC-803, PC3, Bcap-37, and NIH3T3 cells. All cell types were seeded into 96-well plates at a density of 2 × 10^3 cells/well 100 μL of the proper culture medium and incubated with increasing concentrations of the compounds at 37 °C under cell culturing conditions. An MTT assay (Roche Molecular Biochemicals, 1465-007) was performed 72 h later according to the instructions provided by Roche. The precipitated formazan crystals were dissolved in SDS, and the absorbance was read at 595 nm with a microplate reader (BIO-RAD, model 680), which is directly proportional to the number of living cells in culture. The experiment was performed in triplicate. The percentage cytotoxicity was calculated using the formula. %Cytotoxicity=Controlabs-Blankabs-Testabs-Blankabs/Controlabs-Blankabs×100

[5] = test system: MGC-803 cells; assay: Hoechst 33,258 staining for apoptosis; type: cell-based, human; details: MGC-803 cells, 1, 5, and 10 μM, 12 h
Method: Membrane-permeable Hoechst 33,258 was a blue fluorescent dye and stained the cell nucleus. […] MGC-803 cells treated with compound 5f at concentrations of 1, 5, and 10 μM for 12 h were stained with Hoechst 33,258, with HCPT as positive control at 10 μM for 12 h. The results are illustrated in Fig. 2b.
as §1, with “cells were fixed” for “cover slip”, “4% paraformaldehyde for 10 min, followed by incubation” for “monolayer cells was inverted on the glass slide”, “Hoechst 33,258 staining solution (Beyotime) for 5 min” for “20 μL of AO/EB stain (100 μg/mL),”

[6] = test system: human prostate cancer cell line PC3; assay: MTT assay, PC3 cells; type: cell-based; details: for inhibition at 10 µM: PC-3, 10 μM, 72 h, read-out: Inhibition rates against different cells (%) PC3; for IC50: PC-3, 72 h after treatment
Method: as §2, §3, §4

[7] = test system: human gastric cancer cell line MGC-803; assay: MTT assay, MGC-803 cells; type: cell-based; details: for inhibition at 10 µM: 72 h, read-out: Inhibition rates against different cells (%) MGC-803; for IC50: 72 h after treatment
Method: as §2, §3, §4

[8] = test system: normal cell line NIH3T3 (mouse embryo fibroblast cell line); assay: MTT assay, NIH3T3 normal cells; type: cell-based; details: 72 h, read-out: Inhibition rates against different cells (%) NIH3T3
Method: as §2, §3, §4

| IC50 [4] | IC50 [6] | IC50 [7] | melting point | SMILES | TUNEL staining [1] | AO/EB staining, apoptotic morphology [2] | apoptosis ratio [3] | inhibition at 10 µM [4] | Hoechst 33,258 staining, apoptotic morphology [5] | apoptosis of MGC-803 cells over time ([3]; 10 μM for 6, 12, and 24 h) | inhibition at 10 µM [6] | inhibition at 10 µM [7] | inhibition at 10 µM [8] |
| --- | --- | --- | --- | --- | --- | --- | --- | --- | --- | --- | --- | --- | --- |
| 4.98 ± 0.39 µM | 1.37 ± 0.22 µM | 0.85 ± 0.43 µM |  | Cc1ccc2ncnc(Oc3ccccc3/C=C/C(=O)/C=C/c3c(Cl)cccc3Cl)c2c1 [Compound 5f, (1E,4E)-1-(2,6-dichlorophenyl)-5-(2-((6-methylquinazolin-4-yl)oxy)phenyl)penta-1,4-dien-3-one] | appeared as brown precipitate | apoptotic cells with typical apoptotic features | 26.4% | 76.5 ± 1.9% | exhibited strong blue fluorescence and revealed typical apoptotic morphology | gradually increased in a time-dependent manner | 93 ± 1.8% | 90.7 ± 0.6% | 21.5 ± 2.7% |
| 8.92 ± 0.58 µM | 8.12 ± 0.46 µM | 2.94 ± 0.32 µM | 198 to 200 °C | Cc1cccc2c(Oc3ccccc3/C=C/C(=O)/C=C/c3cc([N+](=O)[O-])ccc3Cl)ncnc12 [Compound 5k, (1E,4E)-1-(2-chloro-5-nitrophenyl)-5-(2-((8-methylquinazolin-4-yl)oxy)phenyl)penta-1,4-dien-3-one] |  |  |  | 60.2 ± 1.4% |  |  | 76.3 ± 2.5% | 82.1 ± 3% | 3 ± 2.3% |
| 7.82 ± 0.39 µM | 3.79 ± 0.47 µM | 2.05 ± 0.39 µM | 161 to 163 °C | Cc1cccc2c(Oc3ccccc3/C=C/C(=O)/C=C/c3c(Cl)cccc3Cl)ncnc12 [Compound 5m, (1E,4E)-1-(2,6-dichlorophenyl)-5-(2-((8-methylquinazolin-4-yl)oxy)phenyl)penta-1,4-dien-3-one] |  |  |  | 66.4 ± 1.5% |  |  | 81.2 ± 2.8% | 81.1 ± 1.7% | 12.4 ± 2.5% |
| 8.7 ± 0.54 µM | 4.16 ± 0.43 µM | 3.33 ± 0.42 µM | 176 to 178 °C | COc1ccc(OC)c(/C=C/C(=O)/C=C/c2ccccc2Oc2ncnc3c(C)cccc23)c1 [Compound 5n, (1E,4E)-1-(2,5-dimethoxyphenyl)-5-(2-((8-methylquinazolin-4-yl)oxy)phenyl)penta-1,4-dien-3-one] |  |  |  | 55.8 ± 1.1% |  |  | 69 ± 1.7% | 78.7 ± 2.7% | 29.6 ± 2.4% |

More lines, now with the values behind:

| SMILES | IC50 [4] | IC50 [6] | IC50 [7] | melting point | TUNEL staining [1] | AO/EB staining, apoptotic morphology [2] | apoptosis ratio [3] | inhibition at 10 µM [4] | Hoechst 33,258 staining, apoptotic morphology [5] | apoptosis of MGC-803 cells over time ([3]; 10 μM for 6, 12, and 24 h) | inhibition at 10 µM [6] | inhibition at 10 µM [7] | inhibition at 10 µM [8] |
| --- | --- | --- | --- | --- | --- | --- | --- | --- | --- | --- | --- | --- | --- |
| CC[C@@]1(O)C(=O)OCc2c1cc1n(c2=O)Cc2cc3cc(O)ccc3nc2-1 [HCPT, 10-hydroxyl camptothecine, reference compound] |  |  |  |  | appeared as brown precipitate | apoptotic cells with typical apoptotic features | 22.3% |  |  |  |  |  |  |
| Cc1ccc2ncnc(Oc3ccccc3/C=C/C(=O)/C=C/c3ccc(Cl)cc3Cl)c2c1 [Compound 5e, (1E,4E)-1-(2,4-dichlorophenyl)-5-(2-((6-methylquinazolin-4-yl)oxy)phenyl)penta-1,4-dien-3-one] | 9.6 ± 0.42 µM | 4.71 ± 0.36 µM | 1.89 ± 0.26 µM | 211 to 214 °C |  |  |  | 67.3 ± 3.9% |  |  | 75.2 ± 7.8% | 87 ± 1% | 53.8 ± 1.8% |
| COc1ccc(OC)c(/C=C/C(=O)/C=C/c2ccccc2Oc2ncnc3ccc(C)cc23)c1 [Compound 5g] | 5.61 ± 0.5 µM | 2.18 ± 0.31 µM | 2.02 ± 0.37 µM | 122 to 123 °C |  |  |  | 74.9 ± 2% |  |  | 83.1 ± 2.8% | 85.9 ± 1.2% | 74.3 ± 0.9% |

Source: article PMC5352699, “Synthesis and in vitro antitumor activity of (1E,4E)-1-aryl-5-(2-((quinazolin-4-yl)oxy)phenyl)-1,4-pentadien-3-one derivatives” (Chemistry Central Journal, 2017)
